# Legend:
# Assay in all cases: Post-emergence field trial, visual weed control
# Assay type in all cases: in vivo
# [1] = test system: SASKR = thistle, Russian (Salsola iberica Sennen & Pau); conditions: 29 days after application, foliar
# Protocol: (§1) Multiple post-emergence field trials were conducted under field conditions in the United States (Mississippi, South Dakota, and Minnesota) and Mexico. Trial sites were located in commercially grown fields of corn (ZEAMX), spring wheat (TRZAS), and winter wheat (TRZAW), using standard herbicide small plot research methodology. Post-emergence trial plot size varied from 2 to 3 meter (m)×4 to 5 m (width×length) with 4 replicates per treatment. The crops were grown using normal cultural practices for fertilization, seeding, watering, and maintenance to ensure good growth of the crops and the weeds.
# (§2) All treatments in the post-emergence field trials were applied using a backpack compressed carbon dioxide (CO2) or nitrogen (N2) sprayer with flat fan nozzles calibrated to apply 94 to 250 liters per hectare (L/ha) spray volume at approximately 30-40 pounds per square inch (psi) nozzle pressure. Commercially available products of fluoroxypyr-meptyl (STARANE® 200, 200 grams acid equivalent per liter (g ae/L) and fluoroxypyr-meptyl EC 240 g ae/L) and flumetsulam (75WDG) were mixed in water at appropriate formulated product rates to achieve the desired rates based on a unit area of application (hectare) to achieve the desired rates as shown. […] Treatments were rated at 7 to 45 days after application (DAA) as compared to the untreated control plants. Visual weed control was scored on a scale of 0 to 100 percent where “0” corresponds to no injury and “100” corresponds to complete kill.
# (§3) The trial sites had naturally occurring populations of weeds. The weed spectrum included, but was not limited to, AMARE, AMASS, CHEAL, CHEMU, IPOLA, KCHSC, POLCO, RUMCR, and SASKR.
# (§4) A t-test (alpha=0.05) between Colby predictions and observed combinations was used to test for significant differences indicating synergy or antagonism using replicate data.
# (§5) The following equation was used to calculate the expected activity of mixtures containing two active ingredients, A and B: Expected=A+B−(A×B/100) • A=observed efficacy of active ingredient A at the same concentration as used in the mixture; • B=observed efficacy of active ingredient B at the same concentration as used in the mixture.
# [2] = test system: POLCO = buckwheat, wild (Polygonum convolvulus L.); conditions: 28 days after application, foliar
# Protocol: as §1, §2, §3, §4, §5
# [3] = test system: KCHSC = kochia (Kochia scoparia (L.) Schrad.); conditions: 28 days after application, foliar
# Protocol: as §1, §2, §3, §4, §5
# [4] = test system: CHEMU = goosefoot, nettleleaf (Chenopodium murale L.); conditions: 30 days after application, foliar
# Protocol: as §1, §2, §3, §4, §5
# [5] = test system: AMARE = pigweed, redroot (Amaranthus retroflexus L.); conditions: foliar
# Protocol: as §1, §2, §3, §4, §5
# [6] = test system: AMASS = pigweed species (Amaranthus sp.); conditions: foliar; for Flumetsulam % Visual Weed Control: flumetsulam 20 g ai/ha
# Protocol: as §1, §2, §3, §4, §5
# [7] = test system: IPOLA = morningglory, pitted (Ipomoea lacunosa L.); conditions: 28 days after application, foliar
# Protocol: as §1, §2, §3, §4, §5
# [8] = test system: CHEAL = lambsquarters, common (Chenopodium album L.); conditions: 30 days after application, foliar
# Protocol: as §1, §2, §3, §4, §5
# [9] = test system: RUMCR = dock, curly (Rumex crispus L.); conditions: 45 days after application, foliar
# Protocol: as §1, §2, §3, §4, §5
compound,measurement,setting,value
"CCCCCCC(C)OC(=O)COc1nc(F)c(Cl)c(N)c1Cl (racemic) [Fluroxypyr-Meptyl, (RS)-1-methylheptyl 4-amino-3,5-dichloro-6-fluoro-2-pyridyloxyacetate]",Fluroxypyr-Meptyl % Visual Weed Control,[1]; fluroxypyr-meptyl 35 g ae/ha,23%
same,Fluroxypyr-Meptyl % Visual Weed Control,[2]; fluroxypyr-meptyl 35 g ae/ha,38%
same,Fluroxypyr-Meptyl % Visual Weed Control,[2]; fluroxypyr-meptyl 70 g ae/ha,64%
same,Fluroxypyr-Meptyl % Visual Weed Control,[3]; fluroxypyr-meptyl 35 g ae/ha,30%
same,Fluroxypyr-Meptyl % Visual Weed Control,[4]; fluroxypyr-meptyl 50 g ae/ha,20%
same,Fluroxypyr-Meptyl % Visual Weed Control,[4]; fluroxypyr-meptyl 75 g ae/ha,28%
same,Fluroxypyr-Meptyl % Visual Weed Control,"[5]; 13 days after application, fluroxypyr-meptyl 110 g ae/ha",8%
same,Fluroxypyr-Meptyl % Visual Weed Control,"[5]; 28 days after application, fluroxypyr-meptyl 35 g ae/ha",3%
same,Fluroxypyr-Meptyl % Visual Weed Control,"[5]; 28 days after application, fluroxypyr-meptyl 110 g ae/ha",13%
same,Fluroxypyr-Meptyl % Visual Weed Control,"[6]; 7 days after application, fluroxypyr-meptyl 75 g ae/ha",15%
same,Fluroxypyr-Meptyl % Visual Weed Control,"[6]; 14 days after application, fluroxypyr-meptyl 50 g ae/ha",21%
same,Fluroxypyr-Meptyl % Visual Weed Control,"[6]; 14 days after application, fluroxypyr-meptyl 75 g ae/ha",18%
same,Fluroxypyr-Meptyl % Visual Weed Control,[7]; fluroxypyr-meptyl 70 g ae/ha,20%
same,Fluroxypyr-Meptyl % Visual Weed Control,[8]; fluroxypyr-meptyl 75 g ae/ha,20%
same,Fluroxypyr-Meptyl % Visual Weed Control,[9]; fluroxypyr-meptyl 75 g ae/ha,50%
"Cc1ccn2nc(S(=O)(=O)Nc3c(F)cccc3F)nc2n1 [Flumetsulam, 2′,6′-difluoro-5-methyl[1,2,4]triazolo-[1,5-a]pyrimidine-2-sulfonanilide]",Flumetsulam % Visual Weed Control,[1]; flumetsulam 9 g ai/ha,67%
same,Flumetsulam % Visual Weed Control,[2]; flumetsulam 18 g ai/ha,0%
same,Flumetsulam % Visual Weed Control,[2]; flumetsulam 35 g ai/ha,0%
same,Flumetsulam % Visual Weed Control,[3]; flumetsulam 35 g ai/ha,58%
same,Flumetsulam % Visual Weed Control,[4]; flumetsulam 15 g ai/ha,57%
same,Flumetsulam % Visual Weed Control,[4]; flumetsulam 30 g ai/ha,66%
same,Flumetsulam % Visual Weed Control,[4]; flumetsulam 60 g ai/ha,69%
same,Flumetsulam % Visual Weed Control,"[5]; 13 days after application, flumetsulam 18 g ai/ha",81%
same,Flumetsulam % Visual Weed Control,"[5]; 28 days after application, flumetsulam 35 g ai/ha",45%
same,Flumetsulam % Visual Weed Control,[6]; 7 days after application,79%
same,Flumetsulam % Visual Weed Control,[6]; 14 days after application,81%
same,Flumetsulam % Visual Weed Control,[7]; flumetsulam 18 g ai/ha,33%
same,Flumetsulam % Visual Weed Control,[8]; flumetsulam 15 g ai/ha,31%
same,Flumetsulam % Visual Weed Control,[8]; flumetsulam 30 g ai/ha,35%
same,Flumetsulam % Visual Weed Control,[8]; flumetsulam 60 g ai/ha,40%
same,Flumetsulam % Visual Weed Control,[9]; flumetsulam 15 g ai/ha,40%
same,Flumetsulam % Visual Weed Control,[9]; flumetsulam 30 g ai/ha,52%
same,Flumetsulam % Visual Weed Control,[9]; flumetsulam 60 g ai/ha,70%

# — patent US9131696B2, “Herbicidal compositions comprising fluroxypyr and flumetsulam” (Dow AgroSciences LLC, priority 2012, dated 2015)
